GI50 and TGI data for nine compounds are collected here from PubChem BioAssay (NCI).

Among the test systems are BT-549 breast; COLO 205 colon; DU-145 prostate; HS 578T breast; M14 melanoma; NCI-H23 lung; NCI-H460 lung; SK-MEL-5 melanoma; UACC-62 melanoma; SR leukemia.
Experiment in all cases: inhibition of tumour cell growth, NCI panel, 48 h

“And” between values parts separate entries of the source, which are not always exact repeats. Equal entries are not always repeated.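 How tested: cells in 96-well plates exposed to compound for 48 hours at five concentrations. At the GI50, growth is halved. TGI: concentration producing complete growth inhibition.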 Where a SMILES comes first, the peptide text is derived from it. [ ]: non-standard residue; d: D form. 2Nal = N[CH](Cc1ccc2ccccc2c1)C(=O)O

`COCCOC(C)C(/C=N/NC(N)=S)=N/NC(N)=S` (stereo unspecified): the GI50 was above 100 µM with BT-549 breast; above 100 µM in the assay with COLO 205 colon; above 100 µM in the assay on DU-145 prostate; above 100 µM in the assay on HS 578T breast; 0.0643 µM with M14 melanoma; above 100 µM with NCI-H23 lung. The GI50 in the assay with NCI-H460 lung, with SK-MEL-5 melanoma and with UACC-62 melanoma was above 100 µM each time. Moreover, the TGI in the assay on BT-549 breast, with COLO 205 colon, with DU-145 prostate, in the assay with HS 578T breast, in the assay with M14 melanoma and in the assay on NCI-H23 lung was above 100 µM throughout. Moreover, the TGI with NCI-H460 lung, in the assay on SK-MEL-5 melanoma and in the assay with UACC-62 melanoma was above 100 µM in each case.

`NC1=C(c2nc(-c3cc4ccccc4oc3=O)cs2)C(c2ccco2)c2c(c3ccccc3oc2=O)O1` (stereo unspecified): the GI50 in the assay with COLO 205 colon was above 150 µg/mL; with DU-145 prostate it was above 150 µg/mL; with HS 578T breast it was 39.6 µg/mL; in the assay with M14 melanoma it was 100 µg/mL; with NCI-H23 lung it was above 150 µg/mL; in the assay on NCI-H460 lung it was above 150 µg/mL. The GI50 with SK-MEL-5 melanoma was above 150 µg/mL; in the assay on SR leukemia, 51.9 µg/mL; in the assay with UACC-62 melanoma, 112 µg/mL. Besides, the TGI was above 150 µg/mL in the assay with COLO 205 colon; above 150 µg/mL with DU-145 prostate; 139 µg/mL with HS 578T breast; above 150 µg/mL with M14 melanoma; above 150 µg/mL in the assay on NCI-H23 lung; above 150 µg/mL with NCI-H460 lung. For the same compound, the TGI with SK-MEL-5 melanoma, in the assay with SR leukemia and in the assay with UACC-62 melanoma was above 150 µg/mL throughout.

On to `COc1ccc(OC)c(-c2nc3sccn3c2/C=C2/C(=O)Nc3ccccc32)c1`, for which the GI50 is 0.335 µM with BT-549 breast; 0.595 µM in the assay with COLO 205 colon; 2.1 µM in the assay with DU-145 prostate; 0.415 µM in the assay with HS 578T breast; 0.323 µM in the assay with M14 melanoma; 0.255 µM in the assay with NCI-H23 lung. Moreover, the GI50 with NCI-H460 lung was 0.511 µM; in the assay with UACC-62 melanoma, 0.293 µM. For the same compound, the TGI in the assay with BT-549 breast was 3.13 µM; in the assay on DU-145 prostate it was 26.5 µM; in the assay on HS 578T breast, 2.3 µM; in the assay on M14 melanoma, 1.41 µM; with NCI-H23 lung, 1.69 µM; in the assay with NCI-H460 lung it was above 37.6 µM. Further, the TGI is 0.997 µM with SK-MEL-5 melanoma and 12.8 µM in the assay on UACC-62 melanoma.

For `N#Cc1c(NC(=O)CCC(=O)O)ccc2ccccc12`, the TGI in the assay on BT-549 breast, with COLO 205 colon, in the assay with DU-145 prostate, in the assay with HS 578T breast, with M14 melanoma and in the assay with NCI-H23 lung was above 100 µM in each case. Also, the TGI in the assay on NCI-H460 lung, with SK-MEL-5 melanoma and with UACC-62 melanoma was above 100 µM in each case.

Turning to `Clc1ccc2c(NCCCN3CCN(c4nc(-n5ccnc5)nc5ccccc45)CC3)ccnc2c1`, the GI50 in the assay with COLO 205 colon was above 100 µM; with DU-145 prostate, above 100 µM; with HS 578T breast it was 2.28 µM; with NCI-H23 lung, above 27.5 µM; with SK-MEL-5 melanoma, 1.74 µM; with SR leukemia it was 1.9 µM. In addition, the GI50 in the assay with UACC-62 melanoma was above 37.7 µM. Also, the TGI in the assay on COLO 205 colon was above 100 µM; in the assay with DU-145 prostate, above 100 µM; with HS 578T breast, 19.2 µM; with NCI-H23 lung it was above 100 µM; in the assay with SK-MEL-5 melanoma, 3.17 µM; in the assay with SR leukemia, 5.7 µM. The compound further had a TGI in the assay on UACC-62 melanoma above 67.1 µM.

On to `CC(=O)N1c2ccccc2C23CCN4CC5=CCOC(O)C(C5CC42)C13` (stereo unspecified), for which the TGI with BT-549 breast, with COLO 205 colon, with DU-145 prostate, in the assay with HS 578T breast, in the assay on M14 melanoma and with NCI-H23 lung was above 100 µM in each case. Besides, the TGI in the assay on NCI-H460 lung, in the assay with SK-MEL-5 melanoma and with UACC-62 melanoma was above 100 µM each time.

In the case of `C[C@]12CC[C@H]3[C@@H](C[C@@H]4SC(Nc5cccc(F)c5)=N[C@@]45CC(=O)CC[C@]35C)[C@@H]1CCC2=O`, the GI50 with BT-549 breast was 1.54 µM; in the assay with COLO 205 colon it was 2.16 µM; with DU-145 prostate, 1.93 µM; in the assay on HS 578T breast it was 3.14 µM; in the assay with M14 melanoma it was 2.36 µM; with NCI-H23 lung it was 2.27 µM. Moreover, the GI50 with NCI-H460 lung is 2.52 µM; in the assay with SK-MEL-5 melanoma it was 2.02 µM; with UACC-62 melanoma it was 1.54 µM. Besides, the TGI in the assay on BT-549 breast is 3.61 µM; in the assay on COLO 205 colon, 4.81 µM; with DU-145 prostate, 4.87 µM; with HS 578T breast, above 100 µM; in the assay with M14 melanoma, 7.23 µM; with NCI-H23 lung it was 9.08 µM. Moreover, the results for the TGI in the assay with NCI-H460 lung, in the assay on SK-MEL-5 melanoma and in the assay on UACC-62 melanoma were 5.58 µM, 4.32 µM and 3.12 µM, respectively.

Take `Nc1ccc(-c2ccc(-c3nc4ccccc4[nH]3)cc2)cc1`: the GI50 is 13.2 µM with BT-549 breast; 0.32 µM with COLO 205 colon; 10.6 µM in the assay with DU-145 prostate; 31.1 µM with HS 578T breast; 0.0328 µM with M14 melanoma; 10.6 µM with NCI-H23 lung. Further, the GI50 was 0.196 µM with NCI-H460 lung, 14.9 µM with SK-MEL-5 melanoma and 0.61 µM in the assay with UACC-62 melanoma. Moreover, the TGI was above 61.6 µM in the assay with BT-549 breast; above 100 µM in the assay with DU-145 prostate; above 100 µM in the assay with HS 578T breast; above 100 µM in the assay on M14 melanoma; above 90.6 µM with NCI-H23 lung; above 65.1 µM with NCI-H460 lung. Besides, the TGI is above 100 µM with SK-MEL-5 melanoma and 3.61 µM in the assay on UACC-62 melanoma.

On to `CC(NC(=O)C(N)Cc1ccccc1)C(=O)NC(Cc1ccc(O)cc1)C(=O)NC(Cc1c[nH]c2ccccc12)C(=O)NC(CCCCN)C(=O)NC(C(=O)NC(C)C(=O)NC(Cc1ccc2ccccc2c1)C(N)=O)C(C)C` (stereo unspecified) (H-FAYWKVA[2Nal]-NH2; configuration not given here), for which the GI50 with COLO 205 colon is 27.1 µM; with NCI-H23 lung it was 25.7 µM; in the assay with NCI-H460 lung, 22.7 µM; in the assay with UACC-62 melanoma it was 26.8 µM. For the same compound, the TGI with COLO 205 colon was > 12.5 µM and 61.2 µM; in the assay with DU-145 prostate, above 12.5 µM; with HS 578T breast, above 12.5 µM; in the assay on M14 melanoma, above 12.5 µM; in the assay with NCI-H23 lung, > 12.5 µM and 75.4 µM; in the assay with NCI-H460 lung, > 12.5 µM and 52.3 µM. In addition, the TGI with SK-MEL-5 melanoma was above 12.5 µM; in the assay on UACC-62 melanoma it was > 12.5 µM and 75.7 µM.
